Assay results taken from US8920851B2, “Treatment of neurodegenerative diseases” (Velacor Therapeutics Pty Ltd, priority 2006, dated 2014).

Legend:
[1] = test system: PC3 prostate carcinoma cells; assay: Intracellular redox state assay (DCFDA, flow cytometry); conditions: 1 h, sodium selenate 500 μM, NAC 1 mM
Procedure: 1×10^6 PC3 prostate carcinoma cells were plated in 60 mm dishes, allowed to attach for 8 h, and serum starved overnight. Cells were incubated with DCFDA 5 μM for 15 min prior to treatment.
The proportion of fluorescent cells was then determined by flow cytometry.
Intracellular redox state was determined using 2′,7′-dichlorodihydrofluorescein diacetate (DCFDA). […] Cells were equilibrated with 5 μM of DCFDA for 15 min prior to various treatments. Adherent cells were then harvested, washed twice with PBS and the proportion of fluorescent cells determined immediately by flow cytometry.

[2] = target: T1, PP2A catalytic subunit complexed with Akt (Homo sapiens, UniProt P67775); assay: Co-immunoprecipitation of PP2A catalytic subunit with Akt from PC3 cells; type: cell-based; conditions: 500 μM, 1.5 h, densitometry
T1 construct: Total Akt was immunoprecipitated from 400 μg of each whole cell lysate using a monoclonal anti-Akt antibody; endogenous in cells; host or cells: PC3 prostate carcinoma cells
T1 sequence (P67775 whole entry): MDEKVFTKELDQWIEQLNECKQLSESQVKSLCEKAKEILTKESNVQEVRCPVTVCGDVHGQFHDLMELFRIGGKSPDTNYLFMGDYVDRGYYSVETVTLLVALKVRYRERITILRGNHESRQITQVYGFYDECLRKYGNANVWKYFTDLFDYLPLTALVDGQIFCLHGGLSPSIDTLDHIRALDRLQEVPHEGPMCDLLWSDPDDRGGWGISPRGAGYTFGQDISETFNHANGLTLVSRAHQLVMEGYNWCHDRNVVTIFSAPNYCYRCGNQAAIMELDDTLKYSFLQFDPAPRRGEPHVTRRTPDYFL
T1 sequence (P30153 2-589 partner limits assumed): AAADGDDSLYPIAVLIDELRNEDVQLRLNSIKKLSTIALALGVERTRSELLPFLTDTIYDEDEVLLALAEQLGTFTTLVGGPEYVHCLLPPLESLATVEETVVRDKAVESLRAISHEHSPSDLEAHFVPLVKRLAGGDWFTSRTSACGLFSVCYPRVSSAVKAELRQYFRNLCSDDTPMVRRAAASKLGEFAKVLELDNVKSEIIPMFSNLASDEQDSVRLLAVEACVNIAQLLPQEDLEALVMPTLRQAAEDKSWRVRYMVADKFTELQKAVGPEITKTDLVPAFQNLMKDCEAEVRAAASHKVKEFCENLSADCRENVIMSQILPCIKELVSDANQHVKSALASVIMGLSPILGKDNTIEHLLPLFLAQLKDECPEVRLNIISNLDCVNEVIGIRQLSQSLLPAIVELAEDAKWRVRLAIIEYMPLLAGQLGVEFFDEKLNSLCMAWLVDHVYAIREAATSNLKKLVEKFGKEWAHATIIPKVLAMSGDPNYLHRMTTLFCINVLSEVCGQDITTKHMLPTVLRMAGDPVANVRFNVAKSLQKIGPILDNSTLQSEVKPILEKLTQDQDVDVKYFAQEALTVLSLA
Procedure: 1×10^6 PC3 prostate carcinoma cells were plated onto 6 cm dishes, allowed attach for 8 h, and then serum starved overnight. […] Total Akt was immunoprecipitated from 400 μg of each whole cell lysate using a monoclonal anti-Akt antibody, and captured with protein A-sepharose beads. […] Following washing to reduce non-specific binding, the beads were boiled for 5 min in 3× SDS protein loading buffer, centrifuged at high speed and the supernatant resolved by SDS-PAGE. The level of PP2A binding was determined by immunoblot analysis with an antibody that specifically recognizes the catalytic subunit of the phosphatase, and comparison made with the amount of Akt pulled down and the concentration of precipitating antibody (IgG). […] To quantify this increase in complex formation, representative immunoblots from three independent experiments were digitalized, subjected to densitometric analysis, and normalized to the control for each experiment. The mean ratio of PP2A catalytic subunit to total immunoprecipitated Akt protein ±SEM was then determined.
100-600 μg of whole cell lysate was incubated with various antibodies at a 1:100 dilution in microfuge tubes on a rotating wheel for 1-2 h at RT or 16 h at 4° C. as indicated. Following brief centrifugation, 30-40 μl of pre-washed 50% Protein-A Sepharose Fast Flow beads (Sigma #9424) was added to each tube and rotated at 4° C. for 1 h at RT or 4° C. […]

rabbit PP1 = conditions: 0.05 U PP1, 500 μM phospho-threonine peptide, 15 min at 37° C., 50 μM sodium selenate
Procedure: (§1) 1 mg of synthetic phosphopeptides K-R-pT-I-R-R (Upstate #12-219) and R-R-A-pS-V-A (Upstate #12-220) were dissolved in 1.10-1.285 ml of dH2O to prepare a 1 mM solution, then aliquoted and stored at −20° C. until use. 0.01-0.05 U of purified PP2A A-C dimer purified from human red blood cells, or 0.05 U of rabbit PP1 purified from skeletal muscle was mixed with 500 μM of phosphopeptide and incubated in the presence of various treatments as indicated at 37° C. on a heating block for 15 min. Each reaction was made up to a total volume of 25 μl with pNPP buffer (50 mM Tris-HCl, pH 7.0, 100 μM CaCl2). The enzyme reaction was terminated by adding 100 μl of malachite green solution (0.034% malachite green in 10 mM ammonium molybdate, 1 N HCl, 3.4% ethanol, 0.01% Tween-20). Malachite green forms a stable green complex in the presence of molybdate and orthophosphate, allowing the amount of inorganic phosphate present to be measured. Absorbance was read in duplicate for each sample at 590 nm.

[3] = target: T2, human PP2A A-C heterodimer (Homo sapiens, UniProt P67775); type: biochemical
T2 construct: purified PP2A A-C dimer purified from human red blood cells; purchased Upstate 14-111 (lot #28002); host or cells: human red blood cells (native purification)
T2 sequence (P67775 whole entry): as the sequence (P67775 whole entry) above
T2 sequence (P30153 2-589 partner limits assumed): as the sequence (P30153 2-589 partner limits assumed) above
Procedure: In initial assays a chemical substrate of phosphatase enzymatic action, para-nitrophennylphosphate (pNPP) was used, which following hydrolysis of the phosphate moiety generates para-nitrophenol, an intensely yellow chromogen which is soluble under alkaline conditions. […] Absorbance of each sample was measured in duplicate at 405 nm with 590 nm as a reference. PP2A activity was calculated using the following equation: activity=(sample vol in liters)×A405/1.78×104M^−1 cm^−1 (extinction coefficient)×0.25 cm×15 minutes×0.05 U enzyme Data is presented as mean relative phosphatase activity ±SEM from at least three independent experiments.
Para-nitrophennylphosphate (PNPP) is a chemical substrate of phosphatase enzymes, which following hydrolysis of the phosphate moiety generates para-nitrophenol, an intensely yellow chromogen, soluble under alkaline conditions. In assays measuring relative phosphatase activity, 0.05 U of purified PP2A was mixed with 5 μl of 40 mM NiCl2 and 5 μl of BSA solution (5 mg/ml) in a microcentrifuge tube. Various treatments were added as indicated, and the volume adjusted to 80 μl with pNPP assay buffer. Samples were pre-incubated at 37° C. for 15 min. pNPP substrate was freshly prepared before each assay by dissolving 1.5 mg/ml pNPP in 50 mM Tris-HCl, pH 7.0. To start the phosphatase reaction, 120 μl of pNPP substrate was added, and samples incubated for a further 15 min at 37° C. Absorbance of each sample was measured in duplicate at 405 nm with 590 nm as a reference. PP2A activity was calculated using the following equation: activity=(Sample volume in liters)×A405/1.78×10^4M^−1cm^−1 (Extinction coefficient)×0.25 cm×15 min×0.05 U enzyme.

PP2A A-C dimer = target: T3, PP2A A-C dimer (Homo sapiens, UniProt P67775); assay: Phosphopeptide / malachite green assay with purified PP2A; type: biochemical
T3 construct: purified PP2A A-C dimer purified from human red blood cells; purchased Upstate 14-111 (lot #28002); host or cells: human red blood cells (native purification)
T3 sequence (P67775 whole entry): as the sequence (P67775 whole entry) above
T3 sequence (P30153 2-589 partner limits assumed): as the sequence (P30153 2-589 partner limits assumed) above
Procedure: The amount of inorganic phosphate released by enzymatic activity was determined by the addition of malachite green, and absorbance read at 590 nm. Malachite green forms a stable green complex in the presence of molybdate and orthophosphate, allowing the concentration of inorganic phosphate present to be measured. Data is presented as mean absorbance at 590 nm from at least three independent experiments, ±SEM.
as §1

PHF Tau = conditions: Balb/C Nu Nu male mice, single subcutaneous injection 300 μg per 200 μl PBS, 2 and 6 hours
Procedure: Lysates preparation and Immunoblotting: Cells were washed twice in cold PBS and were lysed in 150 μl of cold RIPA buffer (containing 10% glycerol, 20 mM Tris, 137 mM NaCl, 0.1% SDS, 0.05% IGEPAL, 1% Triton X-100, 2 mM EDTA, 10% NaV, 2% NaF and 4× protease inhibitor), similarly, brain tissues were homogenised in dry ice using mortar and pestle, and lysed in 150 μl RIPA buffer. Samples were incubated on ice for 30 minutes, followed by centrifugation at 13000 rpm/ 10 minutes/ 4° C. Supernantant was collected and protein estimation was calculated for each sample by using BCA reagent (Sigma). Equal amounts of protein were loaded into each lane of a 10% SDS-polyacrylamide gel. The proteins were transferred onto PVDF (Millipore) membranes and were blocked with 5% skim milk blotto for 2 hours. After blocking the membrane, primary antibodies: either anti-human PHF-Tau (AT100 at 1:200, AT180 at 1:1000, and AT270 at 1:2500) or anti-human Tau (HT-7 at 1:1000) were incubated overnight at 4° C. in 5% skim milk blotto. Prior to secondary antibody incubation, membranes were rinsed 3× followed by 3×5 minutes washed in Tris-Buffered Saline with 0.01% Tween at room temperature. […] Membranes were washed as described above and were detected by using Amersham ECL western blotting detection reagent (Amersham Bioscience, Buckinghamshire, UK). […]

[4] = test system: TAU441 transgenic (Tg) TMHT mice
From the text: This was done every Monday, Wednesday and Friday, and the water was weighed on exchange to measure consumption.

[5] = target: phosphatase activity associated with immunoprecipitated Akt protein (PP2A) (Homo sapiens, UniProt P67775); conditions: PC3 cells, 500 μM, 1 h
Chain of phosphatase activity associated with immunoprecipitated Akt protein (PP2A) (P67775 whole entry): as the sequence (P67775 whole entry) above
Chain of phosphatase activity associated with immunoprecipitated Akt protein (PP2A) (P30153 2-589, further chain): as the sequence (P30153 2-589 partner limits assumed) above
Procedure: 2×10^6 PC3 cells were plated in 10 cm plates, allowed to attach for 8 hours, and then serum starved over night. […] 500-600 μg of total protein was then immunoprecipitated with anti-Akt (1:100) monoclonal antibody and 30 μl of Protein A slurry, and after washing, checked for free phosphate contamination by incubation of 25 μl of final wash buffer with Malachite Green. Immunoprecipitates were assayed for phosphatase activity by incubation with 500 μM synthetic phospho-threonine peptide for 10 min at 30° C. with agitation. Free phosphate was detected by the addition of malachite green solution, and absorbance was read at 590 nm, for each sample in duplicate.

SMILES: O=[Se](=O)(O)O [sodium selenate]
- basal proportion of fluorescent cells (ROS) [1]: had no effect on the basal proportion of fluorescent cells
- increase in the binding of PP2A catalytic subunit to Akt protein [2]: approximately 50%
- phosphatase activity of PP1 (rabbit PP1): did not affect the phosphatase activity of PP1
- PP2A phosphatase activity, pNPP as substrate ([3]; 5 mM of each selenium compound): clear boost in phosphatase activity
- PP2A phosphatase activity (pNPP) ([3]; 0.05 U PP2A dimer, 30 min at 37° C., sodium selenate 5 mM, okadaic acid 500 nM): nearly tripled
- PP2A phosphatase activity, serine phosphopeptide as substrate (PP2A A-C dimer; 50 μM of each selenium compound): clear boost in phosphatase activity
- inorganic phosphate released from phosphopeptide by PP2A (PP2A A-C dimer; 0.01-0.05 U PP2A, 500 μM phosphopeptide, 15 min at 37° C., 50 μM sodium selenate): more than doubled
- PHF Tau signal in brain lysate, clone AT100 (60 kDa) (PHF Tau): PHF Tau signal appeared to be reduced
- PHF Tau signal in brain lysate, clone AT180 (60 kDa) (PHF Tau): PHF Tau signal clearly reduced
- Open Field activity parameters (activity, hyperactivity, rearing behaviour) ([4]; 1.2 mg per 100 mL drinking water, 12 weeks): uninfluenced
- finding the platform in the Morris Water Maze versus three months younger baseline group ([4]; day 1): faster
- finding the platform in the Morris Water Maze versus vehicle ([4]; day 1, 2 and 3, p≦0.01): faster
- thigmotaxis: abidance in the centre of the Open Field box, turn 1 ([4]; drinking water, 1.5 months after treatment start, versus vehicle, T-test p=0.019): significant higher abidance in the centre of the Open Field box
- curiosity behaviour (Nose poke) ([4]; drinking water, 12 weeks): remained unchanged
- motor performance (Rota Rod) ([4]; drinking water, 12 weeks): remained unchanged
- negative side effects and premature deaths ([4]; drinking water, 12 weeks): did not lead to any negative side effects or caused any premature deaths
- thigmotactic behaviour, turn 2 ([4]; drinking water, end of treatment): normalized to the level of the vehicle controls
- phosphatase activity associated with immunoprecipitated Akt protein [5]: more than doubled
